The values that follow come from EP4703359A1 (Shanghai Simr Biotechnology Co., Ltd., priority 2023, dated 2024).

For the first test, the target named is T1, α2-GABAA receptor (Homo sapiens, UniProt P18507+P47869).
T1 construct: expressed in transfected cells
T1 sequence (P47869 29-451): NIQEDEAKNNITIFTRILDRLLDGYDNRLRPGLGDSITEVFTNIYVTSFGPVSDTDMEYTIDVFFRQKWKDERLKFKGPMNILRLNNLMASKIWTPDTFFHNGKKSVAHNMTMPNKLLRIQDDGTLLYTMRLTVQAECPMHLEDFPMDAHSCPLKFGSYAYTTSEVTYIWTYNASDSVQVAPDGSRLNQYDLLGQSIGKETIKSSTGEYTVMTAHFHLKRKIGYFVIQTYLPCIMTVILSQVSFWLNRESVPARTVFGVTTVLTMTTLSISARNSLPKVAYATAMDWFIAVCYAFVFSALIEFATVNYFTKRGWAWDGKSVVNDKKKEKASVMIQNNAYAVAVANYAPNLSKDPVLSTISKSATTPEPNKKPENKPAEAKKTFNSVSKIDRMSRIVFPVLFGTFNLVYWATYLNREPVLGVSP
T1 sequence (P18507 40-467 isoform P18507-1 limits assumed): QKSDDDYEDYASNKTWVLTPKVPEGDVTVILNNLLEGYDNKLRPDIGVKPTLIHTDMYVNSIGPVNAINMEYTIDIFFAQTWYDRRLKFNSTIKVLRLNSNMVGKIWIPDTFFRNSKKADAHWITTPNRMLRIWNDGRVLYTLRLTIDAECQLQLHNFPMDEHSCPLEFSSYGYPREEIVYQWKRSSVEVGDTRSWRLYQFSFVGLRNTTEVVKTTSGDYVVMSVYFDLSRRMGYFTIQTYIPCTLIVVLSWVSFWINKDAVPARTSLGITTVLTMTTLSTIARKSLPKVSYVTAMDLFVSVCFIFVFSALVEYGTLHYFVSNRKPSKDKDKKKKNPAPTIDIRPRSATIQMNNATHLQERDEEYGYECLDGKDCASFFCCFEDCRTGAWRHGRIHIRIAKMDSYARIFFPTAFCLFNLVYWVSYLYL
T1 sequence (P28472 26-473 partner): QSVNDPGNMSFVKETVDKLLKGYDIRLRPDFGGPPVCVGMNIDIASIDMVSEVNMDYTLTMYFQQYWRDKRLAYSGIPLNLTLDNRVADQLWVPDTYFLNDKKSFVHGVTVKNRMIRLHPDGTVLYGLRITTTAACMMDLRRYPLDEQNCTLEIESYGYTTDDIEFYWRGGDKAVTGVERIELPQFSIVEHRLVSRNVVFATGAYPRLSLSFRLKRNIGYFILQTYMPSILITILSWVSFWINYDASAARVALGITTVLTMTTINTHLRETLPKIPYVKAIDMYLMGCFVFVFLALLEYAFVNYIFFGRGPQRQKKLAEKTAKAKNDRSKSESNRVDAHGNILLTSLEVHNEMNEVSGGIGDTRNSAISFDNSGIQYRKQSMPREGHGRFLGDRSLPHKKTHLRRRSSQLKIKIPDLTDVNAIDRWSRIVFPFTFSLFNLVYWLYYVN
The experiment in a line: Whole-cell patch-clamp electrophysiology, positive allosteric modulatory activity in α2-GABAAR-HEK293 cells. Format: cell-based. The conditions noted are these: compound 100 nM; GABA 0.10 to 0.11 µM (approximately EC7-8); normalized to reference compound CVL-865 (= 100%). An excerpt:
The α subunit, β subunit, and γ subunit are indispensable for forming a fully functional GABAA receptor. In this example, HEK293 cells stably expressing α2-GABAA receptors (α2-GABAAR) were constructed and screened respectively via liposome transfection (Felgner, P.L., et al. Proceedings of the National Academy of Sciences, 1987, 84: 7413-7417). The α2-GABAAR-HEK293 cell model co-expresses the α2 subunit (protein sequence referenced under GenBank accession number: NM_000807.4), β3 subunit (protein sequence referenced under GenBank accession number: NM_000814.5), and γ2 subunit (protein sequence referenced under GenBank accession number: NM_000816.3).
The above cell lines were subcultured. α2-GABAAR-HEK293 cells were amplified for testing the affinity of compounds to the benzodiazepine (BZD) site of GABAA receptors. Some of the α2-GABAAR-HEK293 cells in suspension during subculturing were plated on glass slides pre-treated with Poly-D-Lysine for electrophysiological testing (method reference: Patent CN 107344936 A, paragraph 0586).
The positive modulatory activity of the test drug on the α2-GABAA receptor was assessed using electrophysiological methods. The specific approach is as follows:
With regards to the concentration of the compound, the final concentration of all compounds used in the screening was 100 nM. For cell lines expressing α2-GABAA receptors, the GABA concentration was 0.10 to 0.11 µM (approximately EC7-8). Electrophysiological experiments were conducted using the whole-cell patch-clamp technique, which can be referenced to the method reported in the literature (Nickolls, S. A., et al. *British Journal of Pharmacology*, 2018, 175: 708-725). The composition of the extracellular solution (ECS) for electrophysiology was as follows: 150 mM NaCl, 5 mM KCl, 2.5 mM CaCl2, 1 mM MgCl2, 10 mM HEPES, and 10 mM glucose (pH 7.4). The intracellular solution (ICS) for electrophysiology was formulated as follows: 140 mM CsCl, 11 mM EGTA, 10 mM HEPES, 2 mM CaCl2, 1 mM MgCl2, 4 mM MgATP, and 2 mM TEA (pH 7.3). GABA (γ-aminobutyric acid) powder was dissolved in pure water to prepare a stock solution, which was subsequently diluted in ECS. The compound was initially dissolved in dimethyl sulfoxide to prepare a 4 mM stock solution, followed by stepwise dilution into GABA-ECS at corresponding concentrations. All solutions were freshly prepared prior to electrophysiological testing.
Electrophysiological signals were acquired using an EPC 10 amplifier and PatchMaster software (HEKA) or an Axon 700B amplifier and Clampex software (AXON). The recording electrode was pulled from borosilicate glass, with an electrode resistance of 4 to 6 MΩ. Extracellular administration was performed using the ALA-VC-8PG™ system. A single independently growing cell was selected. After forming a tight seal between the glass electrode and the cell membrane, the membrane was ruptured to establish the whole-cell configuration. The cell membrane potential was clamped at -60 mV and recorded in Gap-free mode. During the test, extracellular fluid was first applied externally for approximately 20 seconds. After the baseline (Iprebaseline) was stabilized, the extracellular solution was switched to GABA-ECS. At this point, the current induced by GABA (Igaba) can be detected. After approximately 10 to 20 seconds, once the current had stabilized, the extracellular solution was switched to a mixture of the compound and GABA-ECS until the current induced by both the compound and GABA (Itreatment) could be detected. Finally, the solution was switched to extracellular fluid, and the recording was terminated after 20 to 40 seconds. Only cells with a stable baseline, an absolute control current magnitude (Igaba - Iprebaseline) greater than 40 pA, and a relatively stable current within 10 to 20 seconds were used for compound testing. […]
(In general: Patch clamp records ionic current or voltage across a cell membrane.)
Consider `CCCNC(=O)c1nc2c(-c3cc4ncoc4cc3F)cccn2c1N` [Example 98], for which the “α2-GABAAR Positive allosteric modulatory activity” value stood at 64%. On the same count and under the same terms, with `CCCNC(=O)c1nc2c(-c3cc(F)c4ocnc4c3)cccn2c1N` [Example 99] the figure was 31%; with `CCCNC(=O)c1nc2c(CC(C)C)c(F)ccn2c1N` [Example 119], 33%. Same read-out and setting: with `COc1cccc(F)c1-c1c(F)ccn2c(N)c(C(=O)NCCC(F)(F)F)nc12` [Example 125, 3-Amino-7-fluoro-8-(2-fluoro-6-methoxyphenyl)-N-(3,3,3-trifluoropropyl)propylimidazo[1,2-a]pyridine-2-carboxamide] the figure was 70%; with `CCCNC(=O)c1nc2c(-c3cc(F)cc(C#N)c3)c(F)ccn2c1N` [Example 127], 77%; with `COc1cccc(F)c1-c1c(F)ccn2c(N)c(C(=O)NCC=C(F)F)nc12` [Example 131, 3-Amino-N-(3,3-difluoroallyl)-7-fluoro-8-(2-fluoro-6-methoxyphenyl)imidazo[1,2-a]pyridine-2-carboxamide], 82%.

Staying with this test, now noted: compound 100 nM; GABA 0.10 to 0.11 µM (approximately EC7-8); normalized to reference compound CVL-865 (= 100%); read-out: α2-GABAAR Positive allosteric modulatory activity.
Consider `CCCNC(=O)c1nc2c(-c3cc4cnn(C)c4cc3OC)cccn2c1N` [Example 95, 3-Amino-8-(6-methoxy-1-methyl-1H-indazol-5-yl)-N-propylimidazo[1,2-a]pyridine-2-carboxamide], for which the Emax at 0.1 µM is 27%. Turning to `CCCNC(=O)c1nc2c(-c3cc4cn(C)nc4cc3OC)cccn2c1N` [Example 96, 3-Amino-8-(6-methoxy-2-methyl-2H-indazol-5-yl)-N-propylimidazo[1,2-a]pyridine-2-carboxamide], the Emax at 0.1 µM was 52%. As for `CCCNC(=O)c1nc2c(-c3cc4cccnc4cc3OC)cccn2c1N` [Example 97, 3-Amino-8-(7-methoxyquinolin-6-yl)-N-propylimidazo[1,2-a]pyridine-2-carboxamide], the Emax at 0.1 µM amounted to 52%. Regarding `CCCNC(=O)c1nc2c(-c3c(F)ccc4ncoc34)cccn2c1N` [Example 100, 3-Amino-8-(6-fluorobenzoxazol-7-yl)-N-propylimidazopyridine-2-carboxamide], the Emax at 0.1 µM was determined as 94%. Regarding `CCCNC(=O)c1nc2c(-c3c(F)ccc4ccoc34)cccn2c1N` [Example 101, 3-Amino-8-(6-fluorobenzofuran-7-yl)-N-propylimidazo[1,2-a]pyridine-2-carboxamide], the Emax at 0.1 µM came to 112%. Consider `CC1CN(C(=O)c2nc3c(-c4c(F)ccc5ccoc45)cccn3c2N)C1` [Example 102, (3-Amino-8-(6-fluorobenzofuran-7-yl)imidazo[1,2-a]pyridin-2-yl)(3-methylazetidin-1-yl)methanone], for which the Emax at 0.1 µM amounted to 44%. In the case of `CCCNC(=O)c1nc2c(-c3c(OC)ccc4ccoc34)cccn2c1N` [Example 103, 3-Amino-8-(6-methoxybenzofuran-7-yl)-N-propylimidazo[1,2-a]pyridine-2-carboxamide], the Emax at 0.1 µM is 87%. The same measure, in the same setting: with `CCCNC(=O)c1nc2c(-c3c(F)ccc4c3OCC4)cccn2c1N` [Example 106, 3-Amino-8-(6-fluoro-2,3-dihydrobenzofuran-7-yl)-N-propylimidazo[1,2-a]pyridine-2-carboxamide] the figure was 100%. Still for that read-out and setting: the figure for `CCCNC(=O)c1nc2c(-c3c(OC)ccc4ccc(F)cc34)cccn2c1N` [Example 107, 3-Amino-8-(7-fluoro-2-methoxynaphthalen-1-yl)-N-propylimidazo[1,2-a]pyridine-2-carboxamide] is 90%; for `CCCNC(=O)c1nc2c(-c3c(F)ccc4ccc(OC)cc34)cccn2c1N` [Example 108, 3-Amino-8-(2-fluoro-7-methoxynaphthalen-1-yl)-N-propylimidazo[1,2-a]pyridine-2-carboxamide] it is 50%; for `CCCNC(=O)c1nc2c(-c3cc(F)ccc3OC)c(F)ccn2c1N` [Example 110, 3-Amino-7-fluoro-8-(5-fluoro-2-methoxyphenyl)-N-propylimidazo[1,2-a]pyridine-2-carboxamide] it is 141%. Still for that read-out and setting: with `CCCNC(=O)c1nc2c(-c3cc(OC)ccc3OC)c(F)ccn2c1N` [Example 111] the figure was 77%. For `CCCNC(=O)c1nc2c(-c3cccnc3F)c(F)ccn2c1N` [Example 112, 3-Amino-7-fluoro-8-(2-fluoropyridin-3-yl)-N-propylimidazo[1,2-a]pyridine-2-carboxamide], the Emax at 0.1 µM was determined as 53%. The same measure, in the same setting: the figure for `CCCNC(=O)c1nc2c(-c3cc(F)cc(F)c3)c(F)ccn2c1N` [Example 113, 3-Amino-8-(3,5-difluorophenyl)-7-fluoro-N-propylimidazo[1,2-a]pyridine-2-carboxamide] is 49%; for `CCCNC(=O)c1nc2c(-c3cnccc3OC)c(F)ccn2c1N` [Example 114, 3-Amino-7-fluoro-8-(4-methoxypyridin-3-yl)-N-propylimidazo[1,2-a]pyridine-2-carboxamide] it is 124%.

Take `CCCNC(=O)c1nc2c(-c3cccnc3OC)c(F)ccn2c1N` [Example 115, 3-Amino-7-fluoro-8-(2-methoxypyridin-3-yl)-N-propylimidazo[1,2-A]pyridine-2-carboxamide]: the Emax at 0.1 µM was 123%. Regarding `CCCNC(=O)c1nc2c(-c3cc(OC)nnc3OC)c(F)ccn2c1N` [Example 117, 3-Amino-8-(3,6-dimethoxypyridazin-4-yl)-7-fluoro-N-propylimidazo[1,2-a]pyridine-2-carboxamide], the Emax at 0.1 µM was 88%. Still for that read-out and setting: the figure for `CCCNC(=O)c1nc2c(-c3c(C#N)cccc3OC)c(F)ccn2c1N` [Example 118, 3-Amino-8-(2-cyano-6-methoxyphenyl)-7-fluoro-N-propylimidazo[1,2-a]pyridine-2-carboxamide] is 51%. Same read-out and setting: with `CCCNC(=O)c1nc2c(-c3cnc(OC)nc3OC)c(F)ccn2c1N` [Example 120, 3-Amino-8-(2,4-dimethoxypyrimidin-5-yl)-7-fluoro-N-propylimidazo[1,2-a]pyridine-2-carboxamide] the figure was 59%; with `CCCNC(=O)c1nc2c(-c3ccc(F)cc3OC)c(F)ccn2c1N` [Example 121, 3-Amino-7-fluoro-8-(4-fluoro-2-methoxyphenyl)-N-propylimidazo[1,2-a]pyridine-2-carboxamide], 88%.

Regarding `CCCCNC(=O)c1nc2c(-c3c(F)cccc3OC)c(F)ccn2c1N` [Example 124, 3-Amino-N-butyl-7-fluoro-8-(2-fluoro-6-methoxyphenyl)imidazo[1,2-a]pyridine-2-carboxamide], the Emax at 0.1 µM stood at 90%. Still for that read-out and setting: with `CCCNC(=O)c1nc2c(-c3cccc(C#N)c3)c(F)ccn2c1N` [Example 126, 3-Amino-8-(3-cyanophenyl)-7-fluoro-N-propylimidazo[1,2-a]pyridine-2-carboxamide] the figure was 99%; with `CCCNC(=O)c1nc2c(-c3c(F)cccc3OC)c(C(F)F)ccn2c1N` [Example 128, 3-Amino-7-(difluoromethyl)-8-(2-fluoro-6-methoxyphenyl)-N-propylimidazo[1,2-a]pyridine-2-carboxamide], 49%; with `CCCNC(=O)c1nc2c(-c3c(F)cccc3OC)c(Cl)ccn2c1N` [Example 130, 3-Amino-7-chloro-8-(2-fluoro-6-methoxyphenyl)-N-propylimidazo[1,2-a]pyridine-2-carboxamide], 53%.
